# Results from patent US20240099992A1, “COMPOSITIONS AND METHODS FOR TREATING CANCER” (priority 2021, published 2024).
# Where two headings read alike, the source gives them in different places.
# Columns and labels:
# [1] = system: cancer cell lines C8161, MUM2C, SKOV3, OVACA3, ScNAP, DU145, H1299, A549, MDA231, SNU499; settings: MTT, 24 hours
# Method: The cancer cell lines were cultured in DMEM supplemented with 10% fetal bovine serum (FBS) and 100 U/mL penicillin-streptomycin in a humidified 37° C. incubator supplemented with 5% CO2. Cell proliferation was analyzed using MTT proliferation kit (Sigma). In brief, the cells were plated (5.0×10^3 cells per well) in 96-well plates and allowed to adhere overnight. The cells were then treated with methylenediamine dihydrochloride at various concentrations (0, 1 μM, 50 μM; 100 μM. 250 μM, 500 μM and 1 mM for 24 hours before the assay. After the incubation period, 10 μL of the MTT labeling reagent (final concentration 0.5 mg/mL) was added to each well. The microplate was incubated for 4 hours in a humidified atmosphere (37° C., 5% CO2). 100 μL of the Solubilization solution was added into each well. The plate was allowed to stand overnight in the incubator in a humidified atmosphere (37° C., 5% CO2). Complete solubilization of the purple formazan crystals was checked and the absorbance of the samples was measured using a microplate reader with wavelength of 570 nm.
# [2] = system: H22, a mouse liver cancer cell line; settings: for Tumor suppression rate at day 9: versus normal saline group; for Tumor suppression rate at day 9 / suppression of tumor growth in the mouse liver cancer model (in words): dihydrochloride; for suppression of tumor growth in the mouse liver cancer model (in words): 120 and 240 mg/Kg daily through mouth, dose dependent
# Method: H22, a mouse liver cancer cell line from ATCC, was cultured in 1640 medium with 10% […] at 37° C., 5% CO2. The cells were harvest 48 hours later and diluted to 1×10^6 cells/mL with the medium. Kunming mice, male, and body weight of 20 to 23 grams were used for the in vivo study. The animals were allowed free access to food and water throughout the study. All experimental protocols described here were approved by the Ethics Review Committee for Animal Experimentation. 0.2 mL of 1×10^6/ml cell suspension was inoculated into the abdominal cavity of the Kunming mice. The H22 ascites was transplanted 5 days later. The H22 cells in the ascites were harvested, diluted to a concentration of 1×10^7/mL with sterilized NS, then 0.2 mL was injected subcutaneously into the right armpit region of the mice. […] The animals were randomly divided into 3 groups with 7 mice in each and received the drug through mouth daily. Group 1: normal saline; Group 2: Methylenediamine Dihydrochloride low dose of 120 mg/Kg; Group 3: methylenediamine dihydrochloride high dose of 240 mg/Kg. Two perpendicular dimensions (length and width) of the subcutaneous transplantation tumors were measured in every mouse at day 3, day 6 and day 9 to calculate the tumor volume which was compared among groups (volume=½×length×width^2). […] The tumor suppression rate was calculated as: tumor volume in normal saline group minus tumor volume in methylenediamine dihydrochloride treated group, then divided by tumor volume of normal saline group.
# [3] = system: MV-411 (B-myelomonocytic leukemia); settings: 50 μM, 100 μM and 500 μM, 24 hours
# Method: (§1) 50000 cells of each cell line were plated per well in a 24 well plate, treated with methylenediamine hydrochloride at different concentrations (0 as control, 50 μM, 100 μM and 500 μM) for 24 hours, then the living cells were counted. Jurkat: T cell leukemia, HL-60: acute leukemia cell; MV-411: B-myelomonocytic leukemia.
# Jurkat (T cell leukemia) = settings: 50 μM, 100 μM and 500 μM, 24 hours
# Method: as §1
# [4] = system: HL-60 (acute leukemia cell); settings: 50 μM, 100 μM and 500 μM, 24 hours
# Method: as §1
substance,measurement,setting,value
methylenediamine dihydrochloride,suppression of cell proliferation (in words),[1]; 0 μM to 1 mM,suppressed with a dose dependent pattern
same,concentration at which suppression of most cancer cells' growth started,[1],50 µM
same,concentration above which proliferation was significantly suppressed,[1]; dose dependent pattern,above 100 μM
same,"Average tumor volume, Day 3",[2]; 120 mg/Kg daily through mouth,0.43 cm^3
same,"Average tumor volume, Day 6",[2]; 120 mg/Kg daily through mouth,0.85 cm^3
same,"Average tumor volume, Day 9",[2]; 120 mg/Kg daily through mouth,1.21 cm^3
same,Tumor suppression rate at day 9,[2]; 120 mg/Kg daily through mouth,30.5%
same,Tumor suppression rate at day 9,"[2]; 120 mg/Kg daily through mouth, listed as Methylenediamine dihydrochloride",30.5%
same,"Average tumor volume, Day 3",[2]; 240 mg/Kg daily through mouth,0.41 cm^3
same,"Average tumor volume, Day 6",[2]; 240 mg/Kg daily through mouth,0.78 cm^3
same,"Average tumor volume, Day 9",[2]; 240 mg/Kg daily through mouth,1.10 cm^3
same,Tumor suppression rate at day 9,[2]; 240 mg/Kg daily through mouth,36.8%
same,Tumor suppression rate at day 9,"[2]; 240 mg/Kg daily through mouth, listed as Methylenediamine dihydrochloride",36.8%
same,suppression of tumor growth in the mouse liver cancer model (in words),[2]; listed as ethylenediamine dihydrochloride,effective in treating cancers
same,suppression of tumor growth in the mouse liver cancer model (in words),[2]; listed as methylenediamine dihydrochloride,successfully suppressed tumor growth
same,suppression of living cells,[3],significant suppression
same,suppression of living cells,Jurkat (T cell leukemia),significant suppression
same,suppression of living cells,[4],significant suppression
